{"source": "patent US12569463B2", "about": "“Method for treating diabetes” (Olatec Therapeutics, Inc., priority 2020, dated 2026)", "experiment": "Fasting glucose in diabetic subjects of the clinical study of oral dapansutrile capsules in NYHA II-III systolic heart failure", "format": "in vivo, human", "key": {"[1]": {"conditions": "Day 28, 1000 mg per day oral, N = 4"}, "[2]": {"conditions": "Day 28, 2000 mg per day oral, N = 4"}, "[3]": {"conditions": "Day 28, all dapansutrile subjects pooled, N = 14"}}}
{"smiles": "CS(=O)(=O)CCC#N", "note": "[Dapansutrile, 3-methanesulfonylpropionitrile]", "values": [{"measurement": "dose response of fasting glucose change (in words)", "setting": "500 mg, 1000 mg, 2000 mg per day", "result": "trend of dose response"}, {"measurement": "mean fast glucose level decrease from the baseline level", "setting": "2000 mg treatment, Day 14", "result": 43.5, "unit": "mg/dL"}, {"measurement": "Fasting Glucose Level, Change from Baseline, Mean", "setting": "Day 14 (last day of treatment), 500 mg daily oral, diabetic patients N = 6", "result": -20.0, "unit": "mg/dL"}, {"measurement": "Fasting Glucose Level, Change from Baseline, Median", "setting": "Day 14, 500 mg daily oral, N = 6", "result": -18.5, "unit": "mg/dL"}, {"measurement": "Fasting Glucose Level, Change from Baseline, Mean", "setting": "Day 14, 1000 mg per day (500 mg twice a day) oral, diabetic patients N = 4", "result": -16.5, "unit": "mg/dL"}, {"measurement": "Fasting Glucose Level, Change from Baseline, Median", "setting": "Day 14, 1000 mg per day oral, N = 4", "result": -16.5, "unit": "mg/dL"}, {"measurement": "Fasting Glucose Level, Change from Baseline, Mean", "setting": "Day 14, 2000 mg per day (500 mg 4 times a day) oral, diabetic patients N = 4", "result": -43.5, "unit": "mg/dL"}, {"measurement": "Fasting Glucose Level, Change from Baseline, Median", "setting": "Day 14, 2000 mg per day oral, N = 4", "result": -47.5, "unit": "mg/dL"}, {"measurement": "Fasting Glucose Level, Change from Baseline, Mean", "setting": "Day 14, all dapansutrile subjects pooled (500-2000 mg), N = 14", "result": -25.7, "unit": "mg/dL"}, {"measurement": "Fasting Glucose Level, Change from Baseline, Median", "setting": "Day 14, all dapansutrile subjects pooled, N = 14", "result": -32.5, "unit": "mg/dL"}, {"measurement": "decrease of glucose level from the baseline level (in words)", "setting": "Day 14, all dapansutrile-treated subjects, p value of 0.029", "result": "statistically significant decrease"}, {"measurement": "Fasting Glucose Level, Change from Baseline, Mean", "setting": "Day 28 (14 days after last treatment), 500 mg daily oral, N = 6", "result": 25.8, "unit": "mg/dL"}, {"measurement": "drug effect on fasting glucose (in words)", "setting": "Day 28, 14 days after the last treatment", "result": "the drug effect was gone"}, {"measurement": "Fasting Glucose Level, Change from Baseline, Median", "setting": "Day 28, 500 mg daily oral, N = 6", "result": -1.5, "unit": "mg/dL"}, {"measurement": "Fasting Glucose Level, Change from Baseline, Mean", "setting": "[1]", "result": 7.3, "unit": "mg/dL"}, {"measurement": "Fasting Glucose Level, Change from Baseline, Median", "setting": "[1]", "result": -7.0, "unit": "mg/dL"}, {"measurement": "Fasting Glucose Level, Change from Baseline, Mean", "setting": "[2]", "result": -18.0, "unit": "mg/dL"}, {"measurement": "Fasting Glucose Level, Change from Baseline, Median", "setting": "[2]", "result": -21.5, "unit": "mg/dL"}, {"measurement": "Fasting Glucose Level, Change from Baseline, Mean", "setting": "[3]", "result": 8.0, "unit": "mg/dL"}, {"measurement": "Fasting Glucose Level, Change from Baseline, Median", "setting": "[3]", "result": -8.0, "unit": "mg/dL"}]}
